Reference: patent US12397010B2, “Treatment of chronic headaches” (Saint Louis University, priority 2019, dated 2025)

Test system: trigeminal neurons that innervate the dural vasculature
Experiment: in vivo electrophysiological recordings from single unit dural-responsive trigeminal neurons (preclinical model of migraine)
Conditions: rat; for normal cutaneous facial noxious and innocuous somatosensory responses: same neurons, extracranial somatosensory processing; for ongoing neuronal firing of central trigeminal neurons / response to pain-producing stimulation of the dura mater of central trigeminal neurons: intravenous administration, P<0.05 vs. baseline; for ongoing neuronal firing of central trigeminal neurons: FIGS. 1A & 1E; for response to pain-producing stimulation of the dura mater of central trigeminal neurons: FIGS. 1B & 1F
From the text: FIGS. 1A-1H depict a preclinical model of migraine manipulates the pain responsive sensory neurons that innervate the dura mater and its associated blood vessels. The cell bodies of these sensory neurons reside in the trigeminal ganglia. Measuring dural-responsive trigeminal neuronal responses in animals has proven to be extremely predictive of therapeutic efficacy for abortive migraine treatments, such as triptans, and it also translates to migraine preventives. Here we show in vivo electrophysiological recordings in a rat from single unit trigeminal neurons that innervate the dural vasculature. […] Intravenous administration of the migraine abortive, naratriptan (FIGS. 1A-1D) and the migraine preventive, amitriptyline (FIGS. 1E-1H), inhibited ongoing neuronal firing (FIGS. 1A & 1E) and the response to pain-producing stimulation of the dura mater (FIGS. 1B & 1F) of central trigeminal neurons. […] In the same neurons, naratriptan and MRS5980 had no effect on normal cutaneous facial noxious and innocuous somatosensory responses. Amitriptyline, however did affect this normal somatosensory processing. * P<0.05 vs. baseline.

Row | SMILES | inhibiting neuronal responses (compared with naratriptan and amitriptyline) (dural-responsive trigeminal neurons) | normal cutaneous facial noxious and innocuous somatosensory responses | ongoing neuronal firing of central trigeminal neurons | response to pain-producing stimulation of the dura mater of central trigeminal neurons
1 | CNC(=O)[C@@]12C[C@@H]1[C@@H](n1cnc3c(NC)nc(C#Cc4ccc(Cl)s4)nc31)[C@H](O)[C@@H]2O [MRS5980] | equally efficacious | no effect |  | 
2 | CN(C)CCC=C1c2ccccc2CCc2ccccc21 [amitriptyline] |  | did affect | inhibited | inhibited
3 | CNS(=O)(=O)CCc1ccc2[nH]cc(C3CCN(C)CC3)c2c1 [naratriptan] |  | no effect | inhibited | inhibited
